From patent US9884063B2, “Amido-substituted azole compounds” (Bayer Pharma Aktiengesellschaft, priority 2014, dated 2018)

molecular target: T1, TNKS1 (Homo sapiens, UniProt O95271); test: Modified TNKS1 Assay 2 (auto-parsylation, [3H]-NAD+ SPA); assay type: biochemical; conditions: 6 nM TNKS1, 96 well
T1 sequence (O95271 1-1327): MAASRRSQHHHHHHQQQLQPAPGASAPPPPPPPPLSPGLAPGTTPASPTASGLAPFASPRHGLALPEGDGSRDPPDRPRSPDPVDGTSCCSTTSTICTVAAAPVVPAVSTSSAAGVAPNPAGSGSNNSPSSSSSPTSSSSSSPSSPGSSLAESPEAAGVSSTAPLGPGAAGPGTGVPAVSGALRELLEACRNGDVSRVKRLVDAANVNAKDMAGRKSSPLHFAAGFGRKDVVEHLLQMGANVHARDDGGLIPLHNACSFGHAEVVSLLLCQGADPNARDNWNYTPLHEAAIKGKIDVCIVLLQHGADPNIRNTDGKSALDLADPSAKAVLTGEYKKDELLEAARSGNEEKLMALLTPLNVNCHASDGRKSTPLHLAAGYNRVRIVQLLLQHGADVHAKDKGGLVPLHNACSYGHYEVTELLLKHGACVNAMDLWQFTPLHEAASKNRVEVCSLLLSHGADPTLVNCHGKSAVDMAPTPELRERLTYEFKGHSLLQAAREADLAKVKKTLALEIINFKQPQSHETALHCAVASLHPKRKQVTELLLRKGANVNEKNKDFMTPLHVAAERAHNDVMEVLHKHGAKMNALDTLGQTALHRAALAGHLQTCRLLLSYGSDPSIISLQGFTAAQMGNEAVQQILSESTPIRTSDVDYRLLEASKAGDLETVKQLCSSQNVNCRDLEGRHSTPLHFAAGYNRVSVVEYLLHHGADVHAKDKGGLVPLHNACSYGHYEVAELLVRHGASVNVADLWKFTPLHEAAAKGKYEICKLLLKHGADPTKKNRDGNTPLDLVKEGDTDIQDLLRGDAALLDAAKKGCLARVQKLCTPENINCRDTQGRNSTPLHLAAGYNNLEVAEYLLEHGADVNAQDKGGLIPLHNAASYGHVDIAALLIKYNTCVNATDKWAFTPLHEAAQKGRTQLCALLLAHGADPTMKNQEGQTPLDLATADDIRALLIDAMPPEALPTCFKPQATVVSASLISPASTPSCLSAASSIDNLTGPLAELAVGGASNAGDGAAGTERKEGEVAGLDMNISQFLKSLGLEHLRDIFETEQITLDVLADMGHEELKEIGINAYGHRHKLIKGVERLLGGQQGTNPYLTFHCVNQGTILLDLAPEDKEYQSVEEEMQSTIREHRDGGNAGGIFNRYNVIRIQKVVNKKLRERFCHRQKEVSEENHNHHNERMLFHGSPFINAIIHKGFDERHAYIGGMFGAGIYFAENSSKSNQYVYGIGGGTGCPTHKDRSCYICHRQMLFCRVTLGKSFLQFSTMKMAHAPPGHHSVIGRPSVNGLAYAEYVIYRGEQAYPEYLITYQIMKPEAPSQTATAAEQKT

| Structure (SMILES) | IC50 [nM] |
| --- | --- |
| COC(=O)c1nc[nH]c1C(=O)Nc1ccc(NC(=O)c2ccccc2Cl)c(C)c1 [Example 86, methyl-5-({4-[(2-chlorobenzoyl)amino]-3-methylphenyl}carbamoyl)-1H-imidazole-4-carboxylate] | 2600 |
| COC(=O)c1nc[nH]c1C(=O)Nc1ccc(NC(=O)c2ccc(F)cc2Cl)c(OC)c1 [Example 94, methyl 5-({4-[(2-chloro-4-fluorobenzoyl)amino]-3-methoxyphenyl}carbamoyl)-1H-imidazole-4-carboxylate] | 440 |
| COC(=O)c1nc[nH]c1C(=O)Nc1ccc(NC(=O)c2ccccc2Cl)c(OC)c1 [Example 98, methyl 5-({4-[(2-chlorobenzoyl)amino]-3-methoxyphenyl}carbamoyl)-1H-imidazole-4-carboxylate] | 340 |
| COC(=O)c1nc[nH]c1C(=O)Nc1ccc(NC(=O)c2ccc(F)cc2)c(OC)c1 [Example 102, methyl 5-({4-[(4-fluorobenzoyl)amino]-3-methoxyphenyl}carbamoyl)-1H-imidazole-4-carboxylate] | > 10000 |
| CNC(=O)c1[nH]c(C(C)C)nc1C(=O)Nc1ccc(NC(=O)c2ccc(F)cc2Cl)cc1 [Example 106, N^4-{4-[(2-chloro-4-fluorobenzoyl)amino]phenyl}-2-isopropyl-N^5-methyl-1H-imidazole-4,5-dicarboxamide] | > 10000 |
| CNC(=O)c1nc[nH]c1C(=O)Nc1ccc(NC(=O)c2ccccc2Cl)nc1 [Example 112, N^5-{6-[(2-chlorobenzoyl)amino]pyridin-3-yl}-N^4-methyl-1H-imidazole-4,5-dicarboxamide] | 250 |

Stronger by IC50, values ahead:

| IC50 [nM] | Structure (SMILES) |
| --- | --- |
| 80 | CNC(=O)c1nc[nH]c1C(=O)Nc1ccc(NC(=O)c2ccc(F)cc2Cl)c(OC)c1 [Example 95, N^5-{4-[(2-chloro-4-fluorobenzoyl)amino]-3-methoxyphenyl}-N^4-methyl-1H-imidazole-4,5-dicarboxamide] |
| 60 | COc1cc(NC(=O)c2[nH]cnc2C(=O)NCCN2CCCCC2)ccc1NC(=O)c1ccc(F)cc1Cl [Example 97, N^5-{4-[(2-chloro-4-fluorobenzoyl)amino]-3-methoxyphenyl}-N^4-[2-(piperidin-1-yl)ethyl]-1H-imidazole-4,5-dicarboxamide] |
| 50 | COc1cc(NC(=O)c2[nH]cnc2C(=O)NCCN(C)C)ccc1NC(=O)c1ccccc1Cl [Example 100, N^5-{4-[(2-chlorobenzoyl)amino]-3-methoxyphenyl}-N^4-[2-(dimethylamino)ethyl]-1H-imidazole-4,5-dicarboxamide] |
| 30 | Cc1cc(NC(=O)c2[nH]cnc2C(=O)NCCN2CCCCC2)ccc1NC(=O)c1ccccc1Cl [Example 89, N^5-{4-[(2-chlorobenzoyl)amino]-3-methylphenyl}-N^4-[2-(piperidin-1-yl)ethyl]-1H-imidazole-4,5-dicarboxamide] |
| 30 | COc1cc(NC(=O)c2[nH]cnc2C(=O)NCCN(C)C)ccc1NC(=O)c1ccc(F)cc1Cl [Example 96, N^5-{4-[(2-chloro-4-fluorobenzoyl)amino]-3-methoxyphenyl}-N^4-[2-(dimethylamino)ethyl]-1H-imidazole-4,5-dicarboxamide] |
| 20 | CN(C)CCNC(=O)c1nc[nH]c1C(=O)Nc1ccc(NC(=O)c2ccccc2Cl)nc1 [Example 113, N^5-{6-[(2-chlorobenzoyl)amino]pyridin-3-yl}-N^4-[2-(dimethylamino)ethyl]-1H-imidazole-4,5-dicarboxamide] |
